# Reference: article PMC5218480 (PLoS ONE, 2017)
# System: MV-4-11 cells
# Experiment: Gene expression microarray analysis (Affymetrix PrimeView) and GSEA
# Type: cell-based, human
# Set-up: RFU PODN (11730768_x_at) / Fold change /veh PODN (11730768_x_at) / RFU LINC00158 (11744669_a_at) / Fold change /veh LINC00158 (11744669_a_at) / RFU DUSP10 (11751237_a_at) / Fold change /veh DUSP10 (11751237_a_at) / RFU ID3 (11757404_x_at) / Fold change /veh ID3 (11757404_x_at) / RFU PLEKHG5 (11737974_s_at) / Fold change /veh PLEKHG5 (11737974_s_at) / RFU LRRC4B (11730491_at) / Fold change /veh LRRC4B (11730491_at) / RFU GIMAP4 (11747438_a_at) / Fold change /veh GIMAP4 (11747438_a_at) / RFU KRT8 (11758183_x_at) / Fold change /veh KRT8 (11758183_x_at) / RFU CNN1 (11734310_a_at) / Fold change /veh CNN1 (11734310_a_at) / RFU VPS37D (11726825_at) / Fold change /veh VPS37D (11726825_at) / RFU C10orf10 (11716522_x_at) / Fold change /veh C10orf10 (11716522_x_at) / RFU KIR2DL2 /// KIR2DL4 /// KIR2DL5A /// KIR2DL5B /// KIR2DS1 /// KIR2DS2 /// KIR2DS3 /// KIR2DS4 /// KIR3DL3 /// KIR3DL3 /// KIR3DS1 (11738374_at) / Fold change /veh KIR2DL2 /// KIR2DL4 /// KIR2DL5A /// KIR2DL5B /// KIR2DS1 /// KIR2DS2 /// KIR2DS3 /// KIR2DS4 /// KIR3DL3 /// KIR3DL3 /// KIR3DS1 (11738374_at) / RFU C1QL1 (11718748_at) / Fold change /veh C1QL1 (11718748_at) / RFU TMPRSS4 (11747572_a_at) / Fold change /veh TMPRSS4 (11747572_a_at) / RFU HAMP (11756126_x_at) / Fold change /veh HAMP (11756126_x_at) / RFU RNFT2 (11725882_a_at) / Fold change /veh RNFT2 (11725882_a_at) / RFU NR4A2 (11747474_a_at) / Fold change /veh NR4A2 (11747474_a_at) / RFU ABCC12 (11746883_a_at) / Fold change /veh ABCC12 (11746883_a_at) / RFU TMEM136 (11760407_x_at) / Fold change /veh TMEM136 (11760407_x_at) / RFU CLDN22 /// WWC2 (11732394_at) / Fold change /veh CLDN22 /// WWC2 (11732394_at) / RFU HLA-DPB1 (11760878_x_at) / Fold change /veh HLA-DPB1 (11760878_x_at) / RFU SPINT1 (11716480_a_at) / Fold change /veh SPINT1 (11716480_a_at) / RFU GAP43 (11754022_s_at) / Fold change /veh GAP43 (11754022_s_at) / RFU A4GNT (11735810_at) / Fold change /veh A4GNT (11735810_at) / RFU PRB3 (11715151_x_at) / Fold change /veh PRB3 (11715151_x_at) / RFU TUBB4B (11761932_at) / Fold change /veh TUBB4B (11761932_at) / RFU CAPN14 (11732068_a_at) / Fold change /veh CAPN14 (11732068_a_at) / RFU TMCC2 (11721928_a_at) / Fold change /veh TMCC2 (11721928_a_at) / RFU IRGQ (11745062_a_at) / Fold change /veh IRGQ (11745062_a_at) / RFU FAM174B (11720279_a_at) / Fold change /veh FAM174B (11720279_a_at) / RFU TMPRSS4 (11748680_a_at) / Fold change /veh TMPRSS4 (11748680_a_at) / RFU FAM212B (11763350_a_at) / Fold change /veh FAM212B (11763350_a_at) / RFU PLEKHG5 (11743358_a_at) / Fold change /veh PLEKHG5 (11743358_a_at) / RFU ZSCAN30 (11745921_a_at) / Fold change /veh ZSCAN30 (11745921_a_at) / RFU CMKLR1 (11741424_a_at) / Fold change /veh CMKLR1 (11741424_a_at) / RFU LOC101060620 /// MAPK8IP1 (11723275_at) / Fold change /veh LOC101060620 /// MAPK8IP1 (11723275_at) / RFU SPTSSB (11747773_x_at) / Fold change /veh SPTSSB (11747773_x_at) / RFU PRSS12 (11739890_at) / Fold change /veh PRSS12 (11739890_at) / RFU BIN1 (11741810_x_at) / Fold change /veh BIN1 (11741810_x_at) / RFU WNT11 (11732464_a_at) / Fold change /veh WNT11 (11732464_a_at) / RFU C10orf10 (11716521_a_at) / Fold change /veh C10orf10 (11716521_a_at) / RFU C5orf56 (11738089_at) / Fold change /veh C5orf56 (11738089_at) / RFU CYB561 (11721691_x_at) / Fold change /veh CYB561 (11721691_x_at) / RFU ANKRD19P (11752326_a_at) / Fold change /veh ANKRD19P (11752326_a_at) / RFU OR2T12 /// OR2T33 /// OR2T8 (11738714_s_at) / Fold change /veh OR2T12 /// OR2T33 /// OR2T8 (11738714_s_at) / RFU VCAN (11748164_a_at) / Fold change /veh VCAN (11748164_a_at) / RFU JSRP1 (11732532_at) / Fold change /veh JSRP1 (11732532_at) / RFU KRTAP10-11 (11738290_x_at) / Fold change /veh KRTAP10-11 (11738290_x_at) / RFU MYO3A (11730013_a_at) / Fold change /veh MYO3A (11730013_a_at) / RFU EBF3 (11725865_a_at) / Fold change /veh EBF3 (11725865_a_at) / RFU CAMK2N1 (11719241_x_at) / Fold change /veh CAMK2N1 (11719241_x_at) / RFU C5orf56 (11738088_a_at) / Fold change /veh C5orf56 (11738088_a_at) / RFU OLFML3 (11715873_a_at) / Fold change /veh OLFML3 (11715873_a_at) / RFU LOC100653217 /// NTM (11731650_a_at) / Fold change /veh LOC100653217 /// NTM (11731650_a_at) / RFU MAPK11 (11762145_a_at) / Fold change /veh MAPK11 (11762145_a_at) / RFU FIZ1 (11724087_x_at) / Fold change /veh FIZ1 (11724087_x_at) / RFU OASL (11726364_x_at) / Fold change /veh OASL (11726364_x_at) / RFU SOX15 (11748057_x_at) / Fold change /veh SOX15 (11748057_x_at) / RFU CD79A (11719716_a_at) / Fold change /veh CD79A (11719716_a_at) / RFU HIST1H1D (11736915_at) / Fold change /veh HIST1H1D (11736915_at) / RFU CASKIN2 (11723855_a_at) / Fold change /veh CASKIN2 (11723855_a_at) / RFU LOC730098 (11760151_x_at) / Fold change /veh LOC730098 (11760151_x_at) / RFU OR4N2 (11742367_at) / Fold change /veh OR4N2 (11742367_at) / RFU PRRT2 (11749266_a_at) / Fold change /veh PRRT2 (11749266_a_at) / RFU SNX32 (11753110_a_at) / Fold change /veh SNX32 (11753110_a_at) / RFU CDHR5 (11726645_a_at) / Fold change /veh CDHR5 (11726645_a_at) / RFU RCAN1 (11760418_a_at) / Fold change /veh RCAN1 (11760418_a_at) / RFU FAM167A (11723789_a_at) / Fold change /veh FAM167A (11723789_a_at) / RFU FAM26E (11764081_at) / Fold change /veh FAM26E (11764081_at) / RFU ISYNA1 (11749810_s_at) / Fold change /veh ISYNA1 (11749810_s_at) / RFU ACY1 (11761880_at) / Fold change /veh ACY1 (11761880_at) / RFU 11764098_at / Fold change /veh 11764098_at / RFU SAMD14 (11745864_x_at) / Fold change /veh SAMD14 (11745864_x_at) / RFU NPB (11741838_a_at) / Fold change /veh NPB (11741838_a_at) / RFU TMPRSS6 (11731388_a_at) / Fold change /veh TMPRSS6 (11731388_a_at) / RFU KRTAP10-2 (11738614_at) / Fold change /veh KRTAP10-2 (11738614_at) / RFU ARHGAP8 /// PRR5-ARHGAP8 (11727945_x_at) / Fold change /veh ARHGAP8 /// PRR5-ARHGAP8 (11727945_x_at) / RFU KRTAP5-7 /// NADSYN1 (11734609_at) / Fold change /veh KRTAP5-7 /// NADSYN1 (11734609_at) / RFU RASL12 (11751679_a_at) / Fold change /veh RASL12 (11751679_a_at) / RFU CDKN2B (11736163_a_at) / Fold change /veh CDKN2B (11736163_a_at) / RFU PRF1 (11729649_at) / Fold change /veh PRF1 (11729649_at) / RFU, ZNF638 /// ZNF638-IT1 / Fold change vs veh, ZNF638 /// ZNF638-IT1 / RFU, PANK3 / Fold change vs veh, PANK3 / RFU, SH3YL1 / Fold change vs veh, SH3YL1 / RFU, ZEB2 / Fold change vs veh, ZEB2 / RFU, NRIP1 / Fold change vs veh, NRIP1 / RFU, PTTG1IP / Fold change vs veh, PTTG1IP / RFU, CAPN2 / Fold change vs veh, CAPN2 / RFU, MED14 / Fold change vs veh, MED14 / RFU, SNORA58 / Fold change vs veh, SNORA58 / RFU, C1orf63 / Fold change vs veh, C1orf63 / RFU, LRRFIP1 / Fold change vs veh, LRRFIP1 / RFU, NDUFAF7 / Fold change vs veh, NDUFAF7 / RFU, SLC12A2 / Fold change vs veh, SLC12A2 / RFU, IBTK / Fold change vs veh, IBTK / RFU, ESF1 / Fold change vs veh, ESF1 / Fold change vs veh, TMEM50B / RFU, TAOK1 / Fold change vs veh, TAOK1 / RFU, ACBD3 / Fold change vs veh, ACBD3 / RFU, TMA16 / Fold change vs veh, TMA16 / RFU, RWDD3 / Fold change vs veh, RWDD3 / RFU, BCAT1 / Fold change vs veh, BCAT1 / RFU, EDEM3 / Fold change vs veh, EDEM3 / RFU, TMEM33 / Fold change vs veh, TMEM33 / RFU, WDR75 / Fold change vs veh, WDR75 / RFU, AHCTF1 / Fold change vs veh, AHCTF1 / RFU, TFRC / Fold change vs veh, TFRC / RFU, ZDHHC17 / Fold change vs veh, ZDHHC17 / RFU, NOM1 / Fold change vs veh, NOM1 / RFU, ARL8B / Fold change vs veh, ARL8B / RFU, ZBTB11 / Fold change vs veh, ZBTB11 / RFU, TAMM41 / Fold change vs veh, TAMM41 / RFU, KIAA1704 /// LOC100996395 / Fold change vs veh, KIAA1704 /// LOC100996395 / RFU, ING1 / Fold change vs veh, ING1 / RFU, TRMT61B / Fold change vs veh, TRMT61B / RFU, FUBP3 / Fold change vs veh, FUBP3 / RFU, TP53 / Fold change vs veh, TP53 / RFU, TNKS2 / Fold change vs veh, TNKS2 / RFU, ZFP14 / Fold change vs veh, ZFP14 / RFU, ACTR2 / Fold change vs veh, ACTR2 / RFU, PPP3R1 / Fold change vs veh, PPP3R1 / RFU, PIK3R1 / Fold change vs veh, PIK3R1 / RFU, HNRNPA1 / Fold change vs veh, HNRNPA1 / RFU, RNF170 / Fold change vs veh, RNF170 / RFU, ZNF28 / Fold change vs veh, ZNF28 / RFU, RNGTT / Fold change vs veh, RNGTT / RFU, OGT / Fold change vs veh, OGT / RFU, BRD1 / Fold change vs veh, BRD1 / RFU, MARS / Fold change vs veh, MARS / RFU, ZNF655 / Fold change vs veh, ZNF655 / RFU, FAHD1 / Fold change vs veh, FAHD1 / RFU, BDP1 / Fold change vs veh, BDP1 / RFU, LRRCC1 / Fold change vs veh, LRRCC1 / RFU, ARID1A / Fold change vs veh, ARID1A / RFU, ZNF146 / Fold change vs veh, ZNF146 / RFU, ZNF330 / Fold change vs veh, ZNF330 / RFU, GPN3 / Fold change vs veh, GPN3 / RFU, C9orf123 / Fold change vs veh, C9orf123 / RFU, N4BP2L2 / Fold change vs veh, N4BP2L2 / RFU, ARFIP1 / Fold change vs veh, ARFIP1 / RFU, FAM179B / Fold change vs veh, FAM179B / RFU, BCL10 / Fold change vs veh, BCL10 / RFU, UHRF1BP1L / Fold change vs veh, UHRF1BP1L / RFU, BET1 / Fold change vs veh, BET1 / RFU, CNOT2 / Fold change vs veh, CNOT2 / RFU, ZNF268 / Fold change vs veh, ZNF268 / Fold change vs veh, ZNF507 / RFU, DGCR2 / Fold change vs veh, DGCR2 / RFU, WDSUB1 / Fold change vs veh, WDSUB1 / Fold change vs veh, HSP90B1 /// MIR3652 / RFU, ADSS / Fold change vs veh, ADSS / RFU, GK / Fold change vs veh, GK / RFU, ZNF148 / Fold change vs veh, ZNF148 / RFU, TAF9 / Fold change vs veh, TAF9 / RFU, SLC1A5 / Fold change vs veh, SLC1A5 / RFU, SLMO2 / Fold change vs veh, SLMO2 / RFU, ABCC4 / Fold change vs veh, ABCC4 / RFU, LOC101060439 /// RAP1B / Fold change vs veh, LOC101060439 /// RAP1B / RFU, RFX7 / Fold change vs veh, RFX7 / RFU, GTPBP10 / Fold change vs veh, GTPBP10 / RFU, CNEP1R1 / Fold change vs veh, CNEP1R1 / RFU, BIVM-ERCC5 /// ERCC5 / Fold change vs veh, BIVM-ERCC5 /// ERCC5 / RFU, ILF3 / Fold change vs veh, ILF3 / RFU 11762660_at / Fold change /veh 11762660_at / RFU VCAN (11757783_s_at) / Fold change /veh VCAN (11757783_s_at) / RFU DDX43 (11728927_at) / Fold change /veh DDX43 (11728927_at) / RFU KRT8 (11758188_x_at) / Fold change /veh KRT8 (11758188_x_at) / RFU NKD1 (11759106_at) / Fold change /veh NKD1 (11759106_at) / RFU SRD5A1 (11742802_a_at) / Fold change /veh SRD5A1 (11742802_a_at) / RFU TPSAB1 /// TPSB2 (11721975_s_at) / Fold change /veh TPSAB1 /// TPSB2 (11721975_s_at) / RFU GSTM3 (11746129_a_at) / Fold change /veh GSTM3 (11746129_a_at) / RFU IL23R (11737362_x_at) / Fold change /veh IL23R (11737362_x_at) / RFU TMEM51 (11727254_a_at) / Fold change /veh TMEM51 (11727254_a_at) / RFU PIWIL2 (11732686_x_at) / Fold change /veh PIWIL2 (11732686_x_at) / RFU ORM1 (11744905_x_at) / Fold change /veh ORM1 (11744905_x_at) / RFU CCDC152 (11743942_at) / Fold change /veh CCDC152 (11743942_at) / RFU ECM1 (11717891_a_at) / Fold change /veh ECM1 (11717891_a_at) / RFU IL23R (11748794_a_at) / Fold change /veh IL23R (11748794_a_at) / RFU TNFAIP8L3 (11732012_x_at) / Fold change /veh TNFAIP8L3 (11732012_x_at) / RFU MBOAT4 (11741988_at) / Fold change /veh MBOAT4 (11741988_at) / RFU 11764193_at / Fold change /veh 11764193_at / RFU TMEM53 (11763286_at) / Fold change /veh TMEM53 (11763286_at) / RFU MAGEB2 (11727129_at) / Fold change /veh MAGEB2 (11727129_at) / RFU TMEM200A (11744735_a_at) / Fold change /veh TMEM200A (11744735_a_at) / RFU CCDC152 (11751479_a_at) / Fold change /veh CCDC152 (11751479_a_at) / RFU FAM211A (11726209_a_at) / Fold change /veh FAM211A (11726209_a_at) / RFU RGS16 (11746705_a_at) / Fold change /veh RGS16 (11746705_a_at) / RFU VCAN (11755009_s_at) / Fold change /veh VCAN (11755009_s_at) / RFU RHOB (11743442_s_at) / Fold change /veh RHOB (11743442_s_at) / RFU RGS16 (11720943_a_at) / Fold change /veh RGS16 (11720943_a_at) / RFU RGS16 (11720944_at) / Fold change /veh RGS16 (11720944_at) / RFU, VPS4B / Fold change vs veh, VPS4B / RFU, CREB1 / Fold change vs veh, CREB1 / RFU, DNAJC13 / Fold change vs veh, DNAJC13 / RFU, GNAQ / Fold change vs veh, GNAQ / RFU, CDK5R1 / Fold change vs veh, CDK5R1 / RFU, ZRANB3 / Fold change vs veh, ZRANB3 / RFU, CUL4A / Fold change vs veh, CUL4A / RFU, CCNY / Fold change vs veh, CCNY / RFU, UFL1 / Fold change vs veh, UFL1 / RFU, COG3 / Fold change vs veh, COG3 / RFU, DIAPH2 / Fold change vs veh, DIAPH2 / RFU, SKA2 / Fold change vs veh, SKA2 / RFU, AFF3 / Fold change vs veh, AFF3 / RFU, LMF1 / Fold change vs veh, LMF1 / RFU, IPO11 / Fold change vs veh, IPO11 / RFU, DFFB / Fold change vs veh, DFFB / RFU, FOXP1 / Fold change vs veh, FOXP1 / RFU, CARD8 / Fold change vs veh, CARD8 / RFU, STRN3 / Fold change vs veh, STRN3 / RFU, ADK / Fold change vs veh, ADK / RFU, RASSF2 / Fold change vs veh, RASSF2 / RFU, WIPF1 / Fold change vs veh, WIPF1 / RFU, LARP1B / Fold change vs veh, LARP1B / RFU, RASA1 / Fold change vs veh, RASA1 / RFU, RB1 / Fold change vs veh, RB1 / RFU, PPFIA1 / Fold change vs veh, PPFIA1 / RFU, MAT2A / Fold change vs veh, MAT2A / RFU, CCT5 / Fold change vs veh, CCT5 / RFU, WDR92 / Fold change vs veh, WDR92 / RFU, CUX1 / Fold change vs veh, CUX1 / RFU, TTC7A / Fold change vs veh, TTC7A / RFU, TMEM135 / Fold change vs veh, TMEM135 / RFU, DEPTOR / Fold change vs veh, DEPTOR / RFU, CPM / Fold change vs veh, CPM / RFU, DNAJB6 / Fold change vs veh, DNAJB6 / RFU, CACNA2D3 / Fold change vs veh, CACNA2D3 / RFU, DTX4 / Fold change vs veh, DTX4 / RFU, TFCP2 / Fold change vs veh, TFCP2 / RFU, GMCL1 /// GMCL1P1 / Fold change vs veh, GMCL1 /// GMCL1P1 / RFU, AEBP2 / Fold change vs veh, AEBP2 / RFU, SNHG1 /// SNORD22 /// SNORD25 /// SNORD26 /// SNORD27 /// SNORD28 /// SNORD29 /// SNORD31 / Fold change vs veh, SNHG1 /// SNORD22 /// SNORD25 /// SNORD26 /// SNORD27 /// SNORD28 /// SNORD29 /// SNORD31 / Fold change (Aza/veh), C12orf56 (ProbeSet 11735607_a_at) / Fold change (ACY-1035/veh), C12orf56 (ProbeSet 11735607_a_at) / Fold change (Aza/veh), FGFR1OP (ProbeSet 11751329_s_at) / Fold change (ACY-1035/veh), FGFR1OP (ProbeSet 11751329_s_at) / Fold change (Aza/veh), VPS36 (ProbeSet 11739960_a_at) / Fold change (ACY-1035/veh), VPS36 (ProbeSet 11739960_a_at) / RFU SYPL1 (11715823_x_at) / Fold change /veh SYPL1 (11715823_x_at) / RFU IGFBP7 (11715501_s_at) / Fold change /veh IGFBP7 (11715501_s_at) / RFU REEP3 (11722064_at) / Fold change /veh REEP3 (11722064_at) / RFU IGLL1 (11728026_x_at) / Fold change /veh IGLL1 (11728026_x_at): dose or concentration left out as unconfirmed
# Conditions: ProbeSet 11743580_s_at; LIST B
compound,measurement,value
Nc1ccc(-c2cccs2)cc1NC(=O)c1ccc2c(c1)cc(C1CC1)n2CCN1CCOCC1 [ACY-1035],"Fold change vs veh, ACTR2",0.83
